From patent US10947202B2, “Sodium ion channel inhibitors and pharmaceutically acceptable salts and polymorphs thereof and uses thereof” (SHANGHAI HAIYAN PHARMACEUTICAL TECHNOLOGY CO., LTD., priority 2017, dated 2021)
≈ marks a conversion by molar mass, not a printed value.

Legend:
Format in all cases: physicochemical
[1] = Hygroscopicity experiment (DVS)
From the text: The Dynamic Vapor Sorption (DVS) curve was acquired on the DVS Intrinsic of Surface Measurement Systems.
The DVS results for crystal forms A, D, E-3 and F are shown in FIG. 1E, FIG. 4F, FIG. 7E and FIG. 8E, respectively.

[2] = Stability experiment (storage of crystal forms, HPLC)
Experimental: High performance liquid chromatography spectrum was acquired on an Agilent 1260 HPLC, the specific instrument and test parameters are shown in the table 18 below.
Another set of samples were sealed at 5° C. and kept as a control at the same time. […]

Solubility experiment = details: for Solubility (mg/mL) 0.1M HCl / Solubility (mg/mL) H2O: room temperature; for Solubility (mg/mL) pH6.8: buffer pH 6.8, room temperature; for Solubility (mg/mL) H2O: water
Experimental: The solubility of crystal forms A, D, E-1, E-3, F and free base sample in buffer of 0.1M HCl, pH 4.5, pH 6.8 and water was tested at room temperature. In the test, the standard curves of free base sample and five crystal forms were plotted. Subsequently, 6 mg of API and five crystal form samples were weighed, respectively, and 2 ml of the solvent was added, the mixture was shaken at room temperature for 4 h, then ultrasonicated for 30 min, centrifuged, and the supernatant was taken out, filtered through a 0.45 μm filter and injected, and the solubility was measured, the results are shown in Table 28 (concentration is in mg/ml).

[3] = Crystal form stability on shaking in solvent or heating (XRPD); details: for crystal form after heating: heated to 150° C.; for crystal form after shaking of mixed forms: crystal forms III and IV mixed in ACE and MeOH, shaken at 50° C. for 1 day
Experimental: The reaction solution in the step 4 of Example 1 was poured into water, extracted with ethyl acetate, dried and concentrated, ethanol was added to dissolve and the solution was evaporated, 1N hydrochloric acid and ethyl acetate were added and stirred for 1-2 h, filtered, a solid product which was the crystal form III of free base was obtained, the X-ray powder diffraction pattern is shown in FIG. 11A (the 2θ angle has been marked), the DSC/TGA/DVS patterns are shown in FIGS. 11B, 11C and 11D. According to the DSC pattern, there is an inflection point around 100° C., and the sample has a melting absorption peak at 181.9° C. […] The sample was shaken in ACE and MeOH at 50° C. for 1 day, and the crystal form was unchanged.
The reaction solution in the step 4 of Example 1 was poured into water, extracted with ethyl acetate, dried and concentrated to retain a small amount of ethyl acetate, 1N hydrochloric acid was added and stirred for 1 h, filtered, the filter cake was washed with ethanol and then filtered to obtain a solid product which was the crystal form IV of free base was obtained. The X-ray powder diffraction pattern is shown in FIG. 12A (the […] has been marked), the DSC/TGA/DVS patterns are shown in FIGS. 12B, 12C and 12D. […] The sample was shaken in ACE at 50° C. for 1 day, and the crystal form was unchanged. […]

[4] = 5° C. 0 d, — = below detection limit
[5] = 40° C. 75% RH 14 d, — = below detection limit
[6] = 60° C. 7 d, — = below detection limit
[7] = 60° C. 21 d, — = below detection limit
[8] = buffer pH 4.5, room temperature

SMILES	hygroscopicity (DVS curve) [1]	RRT (%) 0.86 ([2]; 5° C. 0 d) [%]	RRT (%) 1.00 ([2]; 5° C. 0 d) [%]	RRT (%) 1.05 ([2]; 5° C. 0 d) [%]	Total impurities (%) ([2]; 5° C. 0 d)	Content (%) ([2]; 40° C. 75% RH 14 d)	RRT (%) 1.00 ([2]; 40° C. 75% RH 14 d) [%]	RRT (%) 1.05 ([2]; 40° C. 75% RH 14 d) [%]	Total impurities (%) ([2]; 40° C. 75% RH 14 d)	Content (%) ([2]; 60° C. 7 d)	RRT (%) 0.86 ([2]; 60° C. 7 d) [%]	RRT (%) 1.00 ([2]; 60° C. 7 d) [%]	RRT (%) 1.05 ([2]; 60° C. 7 d) [%]	Total impurities (%) ([2]; 60° C. 7 d)	Content (%) ([2]; 60° C. 21 d)	RRT (%) 1.00 ([2]; 60° C. 21 d) [%]	RRT (%) 1.05 ([2]; 60° C. 21 d) [%]	Solubility (mg/mL) 0.1M HCl (Solubility experiment) [mg/mL]	Solubility (mg/mL) pH6.8 (Solubility experiment) [mg/mL]	Solubility (mg/mL) H2O (Solubility experiment) [mg/mL]	also measured
Cc1cc(N2CCN(Cc3cc(F)c(C(=O)NS(=O)(=O)C4CC4)cc3Cl)CC2)ccc1Cl [crystal form D, 5-chloro-4-((4-(4-chloro-3-methylphenyl)piperazin-1-yl)methyl)-N-(cyclopropylsulfonyl)-2-fluorobenzamide]	almost no hygroscopicity	0.03	99.90	0.03	0.11	100.2	99.90	0.03	0.09	98.9	0.03	99.90	0.03	0.11	99.1	99.91	0.03	0.018 (≈ 36 µM)	0.016	0.005 (≈ 9.99 µM)	moisture absorbed (DVS) ([1]; at 95% RH): 0.07%; RRT (%) 0.79 [2, 4]: 0.04%; RRT (%) 0.79 [2, 5]: 0.04%; RRT (%) 0.88 [2, 5]: 0.02%; RRT (%) 0.79 [2, 6]: 0.04%; Total impurities (%) ([2]; 60° C. 21 d): 0.09%; RRT (%) 0.79 [2, 7]: 0.04%; RRT (%) 0.88 [2, 7]: 0.02%; Solubility (mg/mL) pH4.5 (Solubility experiment; [8]): 0.002 mg/mL
Cc1cc(N2CCN(Cc3cc(F)c(C(=O)NS(=O)(=O)C4CC4)cc3Cl)CC2)ccc1Cl [crystal form VII, 5-chloro-4-((4-(4-chloro-3-methylphenyl)piperazin-1-yl)methyl)-N-(cyclopropylsulfonyl)-2-fluorobenzamide]	slightly hygroscopic	–	–	–	–	–	–	–	–	–	–	–	–	–	–	–	–	–	–	–	crystal form after heating [3]: converted into crystal form I
Cc1cc(N2CCN(Cc3cc(F)c(C(=O)NS(=O)(=O)C4CC4)cc3Cl)CC2)ccc1Cl [crystal form E-3, 5-chloro-4-((4-(4-chloro-3-methylphenyl)piperazin-1-yl)methyl)-N-(cyclopropylsulfonyl)-2-fluorobenzamide]	has hygroscopicity	0.08	99.79	0.06	0.26	106.4	99.71	0.04	0.29	99.5	0.08	99.78	0.06	0.22	105.1	99.71	0.04	0.016 (≈ 32 µM)	0.096	>2.780	moisture absorbed (DVS) ([1]; when RH is 85%): 2%; RRT (%) 0.54 [2, 4]: 0.13%; RRT (%) 0.54 [2, 5]: 0.09%; RRT (%) 0.86 [2, 5]: 0.07%; RRT (%) 0.54 [2, 6]: 0.09%; Total impurities (%) ([2]; 60° C. 21 d): 0.30%; RRT (%) 0.54 [2, 7]: 0.08%; RRT (%) 0.86 [2, 7]: 0.07%; solubility at 4 h (Solubility experiment; buffer pH 4.5, pH 4.5, aqueous buffer, thermodynamic from solid, buffer pH 4.5, room temperature, read-out: Solubility (mg/mL) pH4.5): 0.002 mg/mL (≈ 4 µM)
Cc1cc(N2CCN(Cc3cc(F)c(C(=O)NS(=O)(=O)C4CC4)cc3Cl)CC2)ccc1Cl [crystal form IV, 5-chloro-4-((4-(4-chloro-3-methylphenyl)piperazin-1-yl)methyl)-N-(cyclopropylsulfonyl)-2-fluorobenzamide]	slightly hygroscopic	–	–	–	–	–	–	–	–	–	–	–	–	–	–	–	–	–	–	–	stability of the crystal form (assessment in words) [3]: metastable crystal form; crystal form after shaking of mixed forms [3]: converted into crystal form I; crystal form after shaking ([3]; shaken in ACE at 50° C. for 1 day): unchanged
Cc1cc(N2CCN(Cc3cc(F)c(C(=O)NS(=O)(=O)C4CC4)cc3Cl)CC2)ccc1Cl [crystal form II, 5-chloro-4-((4-(4-chloro-3-methylphenyl)piperazin-1-yl)methyl)-N-(cyclopropylsulfonyl)-2-fluorobenzamide]	hygroscopic	–	–	–	–	–	–	–	–	–	–	–	–	–	–	–	–	–	–	–	–
Cc1cc(N2CCN(Cc3cc(F)c(C(=O)NS(=O)(=O)C4CC4)cc3Cl)CC2)ccc1Cl [crystal form VI, 5-chloro-4-((4-(4-chloro-3-methylphenyl)piperazin-1-yl)methyl)-N-(cyclopropylsulfonyl)-2-fluorobenzamide]	slightly hygroscopic	–	–	–	–	–	–	–	–	–	–	–	–	–	–	–	–	–	–	–	crystal form after heating [3]: converted into crystal form I
Cc1cc(N2CCN(Cc3cc(F)c(C(=O)NS(=O)(=O)C4CC4)cc3Cl)CC2)ccc1Cl [crystal form A, 5-chloro-4-((4-(4-chloro-3-methylphenyl)piperazin-1-yl)methyl)-N-(cyclopropylsulfonyl)-2-fluorobenzamide]	slightly hygroscopic	0.05	99.84	0.04	0.16	99.8	99.83	0.02	0.17	98.6	0.05	99.84	0.02	0.16	97.6	99.82	0.03	0.011 (≈ 22 µM)	0.01	0.005 (≈ 9.99 µM)	moisture absorbed (DVS) ([1]; at 95% RH): 0.4%; RRT (%) 0.79 [2, 4]: 0.07%; RRT (%) 0.79 [2, 5]: 0.07%; RRT (%) 0.88 [2, 5]: 0.04%; RRT (%) 0.79 [2, 6]: 0.08%; Total impurities (%) ([2]; 60° C. 21 d): 0.18%; RRT (%) 0.79 [2, 7]: 0.07%; RRT (%) 0.86 [2, 7]: 0.02%; RRT (%) 0.88 [2, 7]: 0.05%; Solubility (mg/mL) pH4.5 (Solubility experiment; [8]): 0.001 mg/mL
Cc1cc(N2CCN(Cc3cc(F)c(C(=O)NS(=O)(=O)C4CC4)cc3Cl)CC2)ccc1Cl [crystal form III, 5-chloro-4-((4-(4-chloro-3-methylphenyl)piperazin-1-yl)methyl)-N-(cyclopropylsulfonyl)-2-fluorobenzamide]	slightly hygroscopic	–	–	–	–	–	–	–	–	–	–	–	–	–	–	–	–	–	–	–	stability of the crystal form (assessment in words) [3]: metastable crystal form; crystal form after shaking of mixed forms [3]: converted into crystal form I; crystal form after shaking ([3]; shaken in ACE and MeOH at 50° C. for 1 day): unchanged
Cc1cc(N2CCN(Cc3cc(F)c(C(=O)NS(=O)(=O)C4CC4)cc3Cl)CC2)ccc1Cl [crystal form F, 5-chloro-4-((4-(4-chloro-3-methylphenyl)piperazin-1-yl)methyl)-N-(cyclopropylsulfonyl)-2-fluorobenzamide]	has hygroscopicity	0.05	99.86	0.03	0.14	98.4	99.90	0.04	0.10	99.7	0.03	99.87	0.04	0.13	101.0	99.80	0.03	0.017 (≈ 34 µM)	0.050	>3.154	moisture absorbed (DVS) ([1]; when RH is 85%): 4%; RRT (%) 0.79 [2, 4]: 0.06%; RRT (%) 0.79 [2, 5]: 0.04%; RRT (%) 0.79 [2, 6]: 0.06%; Total impurities (%) ([2]; 60° C. 21 d): 0.20%; RRT (%) 0.79 [2, 7]: 0.05%; RRT (%) 0.86 [2, 7]: 0.03%; RRT (%) 0.88 [2, 7]: 0.02%; Solubility (mg/mL) pH4.5 (Solubility experiment; [8]): 0.002 mg/mL
Cc1cc(N2CCN(Cc3cc(F)c(C(=O)NS(=O)(=O)C4CC4)cc3Cl)CC2)ccc1Cl [crystal form E-1, 5-chloro-4-((4-(4-chloro-3-methylphenyl)piperazin-1-yl)methyl)-N-(cyclopropylsulfonyl)-2-fluorobenzamide]	–	–	–	–	–	–	–	–	–	–	–	–	–	–	–	–	–	0.019 (≈ 38 µM)	0.035	>2.669	Solubility (mg/mL) pH4.5 (Solubility experiment; [8]): 0.002 mg/mL
